Like-named read-outs stand apart in the source and are kept apart here.
What was measured:
Assay in all cases: Growth inhibition GI50 in vitro (CCK8/MTT, 72 h)
SK-BR-3 (Her2 amp) = assay type: cell-based, human; details: Homo sapiens
N87 (HER2 Amp) = assay type: cell-based, human; details: Homo sapiens
AU565 (Her2 amp) = assay type: cell-based, human; details: Homo sapiens
H1975 (EGFR L858R/T790M) = assay type: cell-based, human; details: Homo sapiens, NCI-H1975
PC-9 (EGFR dE746-A750) = assay type: cell-based, human; details: Homo sapiens
[1] = system: PC-9ER (EGFR delE746-A750/T790M); assay type: cell-based, human; details: Homo sapiens, PC-9/ER; EGFR mutant cell line; range of GI50; read-out: GI50 PC9ER
HCC827 (EGFR dE746-A750) = assay type: cell-based, human; details: Homo sapiens
H292 (EGFR WT) = assay type: cell-based; details: Homo sapiens, NCI-H292; H292, EGFR wt; read-out: GI50
Calu-3 (Her2 amp) = assay type: cell-based; details: Homo sapiens; Calu-3, EGFR wt, Her2 amp; read-out: GI50
A549 (EGFR WT) = assay type: cell-based, human; details: Homo sapiens
[2] = system: H1299 (EGFR wt, Nras Q61K); assay type: cell-based, human; details: Homo sapiens, NCI-H1299
[3] = system: A431 (EGFR WT, amplification and high expression); assay type: cell-based, human; details: Homo sapiens, A-431
[4] = system: H460 (EGFR wt, Kras G61H); assay type: cell-based, human; details: Homo sapiens, NCI-H460

In the case of `C=CC(=O)Nc1cc(Nc2cc(-c3cn(C(C)C)c4ccccc34)ncn2)c(OC)cc1N(C)CCN(C)C` [Compound 183], the GI50 (SK-BR-3 (Her2 amp); SK-BR-3, HER2 positive cell line, range of GI50, read-out: GI50 SK-BR-3) is reported as 10 to 100 nM, the GI50 (SK-BR-3 (Her2 amp); SK-BR-3, EGFR wt, Her2 amp, read-out: GI50) is reported as 78.1 nM and the GI50 (N87 (HER2 Amp); HER2 positive cell line, range of GI50, read-out: GI50 N87) is reported as 10 to 100 nM. It also gave a GI50 (N87 (HER2 Amp); N87, EGFR wt, Her2 amp, read-out: GI50) of 19.5 nM, a GI50 (AU565 (Her2 amp); AU565, HER2 positive cell line, range of GI50, read-out: GI50 AU-565) of 10 to 100 nM and a GI50 (AU565 (Her2 amp); AU565, EGFR wt, Her2 amp, read-out: GI50) of 19.5 nM. For the same molecule, the GI50 (H1975 (EGFR L858R/T790M); EGFR mutant cell line, range of GI50, read-out: GI50 H1975) was 10 to 100 nM, the GI50 (H1975 (EGFR L858R/T790M); H1975, EGFR L858R/T790M, read-out: GI50) was 12.5 nM and the GI50 (PC-9 (EGFR dE746-A750); EGFR mutant cell line, range of GI50, read-out: GI50 PC-9) was less than 10 nM. It also gave a GI50 (PC-9 (EGFR dE746-A750); PC-9, EGFR dE746-A750, read-out: GI50) of 3.38 nM, a GI50 [1] of 10 to 100 nM and a GI50 (HCC827 (EGFR dE746-A750); HCC827, EGFR mutant cell line, range of GI50, read-out: GI50 HCC827) of less than 10 nM. For the same molecule, the GI50 (HCC827 (EGFR dE746-A750); HCC827, EGFR dE746-A750, read-out: GI50) was 9 nM, the GI50 (H292 (EGFR WT)) was greater than 1000 nM and the GI50 (Calu-3 (Her2 amp)) was 23.4 nM. For the same molecule, the GI50 (A549 (EGFR WT); A549, EGFR wild type cell line, range of GI50, read-out: GI50 A549) was greater than 1000 nM, the GI50 (A549 (EGFR WT); A549, EGFR wt, Kras G12S, read-out: GI50) was greater than 1000 nM and the GI50 ([2]; EGFR wild type cell line, range of GI50, read-out: GI50 H1299) was greater than 1000 nM. For the same molecule, the GI50 ([2]; H1299, EGFR wt, Nras Q61K, read-out: GI50) was greater than 1000 nM, the GI50 ([3]; A431, EGFR wt, read-out: GI50) was 315 nM and the GI50 ([3]; EGFR wild type cell line, range of GI50, read-out: GI50 A431) was 100 to 1000 nM. For the same molecule, the GI50 ([4]; EGFR wild type cell line, range of GI50, read-out: GI50 H460) was greater than 1000 nM and the GI50 ([4]; H460, EGFR wt, Kras G61H, read-out: GI50) was greater than 1000 nM.
